Laboratory results taken from BindingDB's records for doi:10.1021/jm00172a005 (Kissei Pharmaceutical, 1990).

Experiments:
[1] = biological target: Chymotrypsinogen A (Bos taurus) (UniProt P00766); test: Tested for inhibition of Chymotrypsinogen from bovine
[2] = biological target: Chymotrypsinogen A (Bos taurus) (UniProt P00766); test: as above; remark: listed apart in the source

| SMILES | IC50 [1] [µM] | IC50 [2] [µM] |
| --- | --- | --- |
| CC(C)CC(=O)N[C@H](C(=O)N[C@H](C(=O)N[C@@H](CC(C)C)[C@@H](O)CC(=O)N[C@@H](C)C(=O)N[C@@H](CC(C)C)[C@@H](O)CC(=O)O)C(C)C)C(C)C [PEPSTATIN] | > 100 |  |
| CC(C)OC(=O)[C@H](O)[C@H](CC1CCCCC1)NC(=O)[C@H](Cc1c[nH]cn1)NC(=O)[C@@H](CC(=O)N1CCOCC1)Cc1cccc2ccccc12 [4-Cyclohexyl-2-hydroxy-3-[3-(1H-imidazol-4-yl)-2-(4-morpholin-4-yl-2-naphthalen-1-ylmethyl-4-oxo-butyrylamino)-propionylamino]-butyric acid isopropyl ester] |  | > 100 |
